pIC50: −log10 of the molar value. Where a name gives a salt, the structure may show the parent alone.
target: T1, HCV polymerase (Hepatitis C virus genotype 1b, UniProt P26663); assay: biochemical; parameters: species or system HCV BK strain
T1 construct: a region encoding NS5B (J Virol 1991 March, 65(3), 1105-13, 544 amino acids after deletion of 47 amino acids on the C-terminal); 6xHis (C); made in house; host or cells: Escherichia coli
In short: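 Recombinant HCV BK-strain NS5B (C-terminal 47 aa deleted, His6-tagged, E. coli), 0.5 μg/ml, run with 5 μg/ml in vitro-transcribed RNA template (polyU/3′X), ATP/GTP/CTP 50 μM, UTP 2 μM plus [3H]UTP, pH 7.5, 25° C, 90 min. TCA-precipitated RNA counted by scintillation; IC50 from activity with vs without compound.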

T1 sequence (P26663 2420-2963): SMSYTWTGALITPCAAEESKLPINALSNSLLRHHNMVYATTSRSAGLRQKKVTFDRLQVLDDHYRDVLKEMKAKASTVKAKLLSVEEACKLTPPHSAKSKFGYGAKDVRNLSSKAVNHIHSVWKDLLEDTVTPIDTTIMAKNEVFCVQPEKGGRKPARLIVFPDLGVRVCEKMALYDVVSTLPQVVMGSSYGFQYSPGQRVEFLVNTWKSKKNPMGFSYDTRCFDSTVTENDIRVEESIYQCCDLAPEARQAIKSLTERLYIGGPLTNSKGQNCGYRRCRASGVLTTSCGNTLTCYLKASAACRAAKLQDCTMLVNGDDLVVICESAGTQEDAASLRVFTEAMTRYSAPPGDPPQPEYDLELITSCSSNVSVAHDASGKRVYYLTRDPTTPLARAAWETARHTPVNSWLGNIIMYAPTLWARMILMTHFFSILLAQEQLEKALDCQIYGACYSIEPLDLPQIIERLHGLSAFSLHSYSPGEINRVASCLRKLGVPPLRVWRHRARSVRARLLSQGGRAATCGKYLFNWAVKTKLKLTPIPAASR

SMILES | pIC50
CN1CCCC(CCN2CCn3c(c(C4CCCCC4)c4ccc(C(=O)O)cc43)-c3ccc(Cl)cc32)C1 (stereo not drawn) [Example 1-221, 3-chloro-13-cyclohexyl-5-[2-(1-methylpiperidin-3-yl)ethyl]-6,7-dihydro-5H-benzo[5,6][1,4]diazepino[7,1-a]indole-10-carboxylic acid dihydrochloride] | > 7.00
CN(C)CCN(C)C(=O)CN1CCn2c(c(C3CCCCC3)c3ccc(C(=O)O)cc32)-c2ccccc21 [Example 1-222, 13-cyclohexyl-5-{[N-(2-dimethylaminoethyl)-N-methylcarbamoyl]methyl}-6,7-dihydro-5H-benzo[5,6][1,4]diazepino[7,1-a]indole-10-carboxylic acid dihydrochloride] | > 7.00
CN(C)CCN(C)CCN1CCn2c(c(C3CCCCC3)c3ccc(C(=O)O)cc32)-c2ccccc21 [Example 1-223, 13-cyclohexyl-5-{2-[N-(2-dimethylaminoethyl)-N-methylamino]ethyl}-6,7-dihydro-5H-benzo[5,6][1,4]diazepino[7,1-a]indole-10-carboxylic acid trihydrochloride] | > 7.00
CCS(=O)(=O)N1CCN(CCN2CCn3c(c(C4CCCCC4)c4ccc(C(=O)O)cc43)-c3ccccc32)CC1 [Example 1-224, 13-cyclohexyl-5-[2-(4-ethanesulfonylpiperazin-1-yl)ethyl]-6,7-dihydro-5H-benzo[5,6][1,4]diazepino[7,1-a]indole-10-carboxylic acid dihydrochloride] | > 7.00
CCC(=O)N1CCN(CCN2CCn3c(c(C4CCCCC4)c4ccc(C(=O)O)cc43)-c3ccccc32)CC1 [Example 1-225, 13-cyclohexyl-5-[2-(4-propionylpiperazin-1-yl)ethyl]-6,7-dihydro-5H-benzo[5,6][1,4]diazepino[7,1-a]indole-10-carboxylic acid dihydrochloride] | > 7.00
CC(C)OC(=O)N1CCN(CCN2CCn3c(c(C4CCCCC4)c4ccc(C(=O)O)cc43)-c3ccccc32)CC1 [Example 1-226, 13-cyclohexyl-5-[2-(4-isopropoxycarbonylpiperazin-1-yl)ethyl]-6,7-dihydro-5H-benzo[5,6][1,4]diazepino[7,1-a]indole-10-carboxylic acid dihydrochloride] | > 7.00
CC(C)Oc1ccc2c(c1)N(CCN1CCCCC1)CCn1c-2c(C2CCCCC2)c2ccc(C(=O)O)cc21 [Example 1-227, 13-cyclohexyl-3-isopropoxy-5-[2-(piperidin-1-yl)ethyl]-6,7-dihydro-5H-benzo[5,6][1,4]diazepino[7,1-a]indole-10-carboxylic acid dihydrochloride] | > 7.00
CN(C)CCN1CCn2c(c(C3CCCCC3)c3ccc(C(=O)O)cc32)-c2ccc(OCc3ccccc3)cc21 [Example 1-228, 3-benzyloxy-13-cyclohexyl-5-(2-dimethylaminoethyl)-6,7-dihydro-5H-benzo[5,6][1,4]diazepino[7,1-a]indole-10-carboxylic acid dihydrochloride] | > 7.00
CC(C)N1CCCC(CCN2CCn3c(c(C4CCCCC4)c4ccc(C(=O)O)cc43)-c3ccc(Cl)cc32)C1 (stereo not drawn) [Example 1-229, 3-chloro-13-cyclohexyl-5-[2-(1-isopropylpiperidin-3-yl)ethyl]-6,7-dihydro-5H-benzo[5,6][1,4]diazepino[7,1-a]indole-10-carboxylic acid dihydrochloride] | > 7.00
CCCN1CCCC(CCN2CCn3c(c(C4CCCCC4)c4ccc(C(=O)O)cc43)-c3ccc(Cl)cc32)C1 (stereo not drawn) [Example 1-230, 3-chloro-13-cyclohexyl-5-[2-(1-propylpiperidin-3-yl)ethyl]-6,7-dihydro-5H-benzo[5,6][1,4]diazepino[7,1-a]indole-10-carboxylic acid dihydrochloride] | > 7.00
CN(CCN1CCn2c(c(C3CCCCC3)c3ccc(C(=O)O)cc32)-c2ccccc21)C1CCCCC1 [Example 1-231, 13-cyclohexyl-5-[2-(N-cyclohexyl-N-methylamino)ethyl]-6,7-dihydro-5H-benzo[5,6][1,4]diazepino[7,1-a]indole-10-carboxylic acid] | > 7.00
CS(=O)(=O)N1CCCN(CCN2CCn3c(c(C4CCCCC4)c4ccc(C(=O)O)cc43)-c3ccccc32)CC1 [Example 1-232, 13-cyclohexyl-5-[2-(4-methanesulfonyl-1,4-diazepan-1-yl)ethyl]-6,7-dihydro-5H-benzo[5,6][1,4]diazepino[7,1-a]indole-10-carboxylic acid dihydrochloride] | > 7.00
COC(=O)N1CCCN(CCN2CCn3c(c(C4CCCCC4)c4ccc(C(=O)O)cc43)-c3ccccc32)CC1 [Example 1-233, 13-cyclohexyl-5-[2-(4-methoxycarbonyl-1,4-diazepan-1-yl)ethyl]-6,7-dihydro-5H-benzo[5,6][1,4]diazepino[7,1-a]indole-10-carboxylic acid dihydrochloride] | > 7.00
O=C(O)c1ccc2c(C3CCCCC3)c3n(c2c1)CCN(CCN1CCCCCC1)c1cc(F)ccc1-3 [Example 1-234, 5-[2-(azepan-1-yl)ethyl]-13-cyclohexyl-3-fluoro-6,7-dihydro-5H-benzo[5,6][1,4]diazepino[7,1-a]indole-10-carboxylic acid dihydrochloride] | > 7.00
O=C(O)c1ccc2c(C3CCCCC3)c3n(c2c1)CC(=O)N(CCN1CCCCC1)c1ccccc1-3 [Example 1-235, 13-cyclohexyl-6-oxo-5-[2-(piperidin-1-yl)ethyl]-6,7-dihydro-5H-benzo[5,6][1,4]diazepino[7,1-a]indole-10-carboxylic acid monohydrochloride] | > 7.00
COC(=O)N(C)CCN(C)CCN1CCn2c(c(C3CCCCC3)c3ccc(C(=O)O)cc32)-c2ccccc21 [Example 1-236, 13-cyclohexyl-5-(2-{N-[2-(N-methoxycarbonyl-N-methylamino)ethyl]-N-methylamino}ethyl)-6,7-dihydro-5H-benzo[5,6][1,4]diazepino[7,1-a]indole-10-carboxylic acid dihydrochloride] | > 7.00
CC1CCN(CCN2CCn3c(c(C4CCCCC4)c4ccc(C(=O)O)cc43)-c3ccccc32)C1 (stereo not drawn) [Example 1-237, 13-cyclohexyl-5-[2-(3-methylpyrrolidin-1-yl)ethyl]-6,7-dihydro-5H-benzo[5,6][1,4]diazepino[7,1-a]indole-10-carboxylic acid dihydrochloride] | > 7.00
COC1CCN(CCN2CCn3c(c(C4CCCCC4)c4ccc(C(=O)O)cc43)-c3ccccc32)C1 (stereo not drawn) [Example 1-238, 13-cyclohexyl-5-[2-(3-methoxypyrrolidin-1-yl)ethyl]-6,7-dihydro-5H-benzo[5,6][1,4]diazepino[7,1-a]indole-10-carboxylic acid dihydrochloride] | > 7.00
CCN1CCCN(C(=O)CN2CCn3c(c(C4CCCCC4)c4ccc(C(=O)O)cc43)-c3ccccc32)CC1 [Example 1-239, 13-cyclohexyl-5-[2-(4-ethyl-1,4-diazepan-1-yl)-2-oxoethyl]-6,7-dihydro-5H-benzo[5,6][1,4]diazepino[7,1-a]indole-10-carboxylic acid dihydrochloride] | > 7.00
CC(C)N1CCC(CCN2CCn3c(c(C4CCCCC4)c4ccc(C(=O)O)cc43)-c3ccc(Cl)cc32)CC1 [Example 1-240, 3-chloro-13-cyclohexyl-5-[2-(1-isopropylpiperidin-4-yl)ethyl]-6,7-dihydro-5H-benzo[5,6][1,4]diazepino[7,1-a]indole-10-carboxylic acid dihydrochloride] | > 7.00
Cc1cccc2c1-c1c(C3CCCCC3)c3ccc(C(=O)O)cc3n1CCN2CCN1CCCCC1 [Example 1-241, 13-cyclohexyl-1-methyl-5-[2-(piperidin-1-yl)ethyl]-6,7-dihydro-5H-benzo[5,6][1,4]diazepino[7,1-a]indole-10-carboxylic acid dihydrochloride] | > 7.00
O=C(O)c1ccc2c(C3CCCCC3)c3n(c2c1)CCN(CCCN1CCCCC1)c1cc(Cl)ccc1-3 [Example 1-242, 3-chloro-13-cyclohexyl-5-[3-(piperidin-1-yl)propyl]-6,7-dihydro-5H-benzo[5,6][1,4]diazepino[7,1-a]indole-10-carboxylic acid dihydrochloride] | > 7.00
CCN1CCC(CCN2CCn3c(c(C4CCCCC4)c4ccc(C(=O)O)cc43)-c3ccc(Cl)cc32)CC1 [Example 1-243, 3-chloro-13-cyclohexyl-5-[2-(1-ethylpiperidin-4-yl)ethyl]-6,7-dihydro-5H-benzo[5,6][1,4]diazepino[7,1-a]indole-10-carboxylic acid dihydrochloride] | > 7.00
O=C(O)c1ccc2c(C3CCCCC3)c3n(c2c1)CCN(CCC1CCNCC1)c1cc(Cl)ccc1-3 [Example 1-244, 3-chloro-13-cyclohexyl-5-[2-(piperidin-4-yl)ethyl]-6,7-dihydro-5H-benzo[5,6][1,4]diazepino[7,1-a]indole-10-carboxylic acid dihydrochloride] | > 7.00
O=C(O)c1ccc2c(C3CCCCC3)c3n(c2c1)CCN(CCCN1CCCCCC1)c1cc(Cl)ccc1-3 [Example 1-245, 5-[3-(azepan-1-yl)propyl]-3-chloro-13-cyclohexyl-6,7-dihydro-5H-benzo[5,6][1,4]diazepino[7,1-a]indole-10-carboxylic acid dihydrochloride] | > 7.00
CN1CCC(CCN2CCn3c(c(C4CCCCC4)c4ccc(C(=O)O)cc43)-c3ccc(Cl)cc32)CC1 [Example 1-246, 3-chloro-13-cyclohexyl-5-[2-(1-methylpiperidin-4-yl)ethyl]-6,7-dihydro-5H-benzo[5,6][1,4]diazepino[7,1-a]indole-10-carboxylic acid dihydrochloride] | > 7.00
CN(C)CCCN1CCn2c(c(C3CCCCC3)c3ccc(C(=O)O)cc32)-c2ccc(Cl)cc21 [Example 1-247, 3-chloro-13-cyclohexyl-5-(3-dimethylaminopropyl)-6,7-dihydro-5H-benzo[5,6][1,4]diazepino[7,1-a]indole-10-carboxylic acid dihydrochloride] | > 7.00
